Patent US20230355597A1, “COMPOUNDS, COMPOSITIONS, AND METHODS FOR THE TREATMENT AND PREVENTION OF AVIAN PATHOGENIC E. COLI (APEC)” (OHIO STATE INNOVATION FOUNDATION, priority 2018, published 2023)
In brackets after ≈: the same amount, converted by molar mass. Where two headings read alike, the source gives them in different places. Marks after values point to notes of the source that are not given here.

Assays:
Rif^r APEC O78 = experiment: In vivo efficacy of growth inhibitors in APEC infected broiler chickens; details: for reduction of average APEC load in internal organs: average of liver, lung and kidney; for reduction of average APEC load in internal organs / reduction of APEC load, Heart / reduction of APEC load, Kidney / reduction of APEC load, Liver / reduction of APEC load, Lung: vs untreated control; for reduction of APEC induced mortality: oral gavage twice a day, 5 days, untreated mortality (58.34%) normalized to 100%; for reduction of APEC lesions severity (%), Air-sacs (airsacculitis) / reduction of APEC lesions severity (%), Heart (pericarditis) / reduction of APEC lesions severity (%), Liver (perihepatitis) / reduction of APEC lesions severity (%), Lung (lung congestion): untreated control = 100%; for Body weight gain (BWG): weight of live chickens before necropsy minus weight before treatment
[1] = test system: intracellular APEC O2 in HD11 cells; experiment: Intracellular survival assay (cidal SMs); details: O2, HD11, 6 h treatment; superscript = multiple of MIC
APEC O18 = format: cell-based, avian pathogenic Escherichia coli (APEC); details: APEC O18, M63 media; MIC/MBC
APEC O78 [2] = experiment: Confocal microscopy bacterial cytological profiling; format: cell-based, avian pathogenic Escherichia coli (APEC); details: 2X MBC
Method: Confocal and scanning electron microscopy. Confocal microscopy was used for bacterial cytological profiling (BCP) to identify the cellular pathways targeted by SMs as described previously. […] After incubation, treated cultures were centrifuged, washed, and resuspended in 100 μL PBS. […] Cultures were then centrifuged, washed, and resuspended in PBS to 1⁄10th volume of the original cultures.

APEC O115 = format: cell-based, avian pathogenic Escherichia coli (APEC); details: APEC O115, M63 media; MIC/MBC
[3] = test system: intracellular APEC O1 in THP-1 cells; experiment: Intracellular survival assay (cidal SMs); details: O1, THP-1, 6 h treatment; superscript = multiple of MIC
[4] = test system: intracellular APEC O78 in THP-1 cells; experiment: Intracellular survival assay (cidal SMs); details: O78, THP-1, 6 h treatment; superscript = multiple of MIC
[5] = test system: intracellular APEC O78, O2, and O1 in infected Caco-2, HD11, and THP1 cells; experiment: Intracellular survival assay (cidal SMs), summary over serotypes and cells; details: overall ranking
[6] = test system: intracellular APEC O2 in Caco-2 cells; experiment: Intracellular survival assay (cidal SMs); details: O2, Caco-2, 6 h treatment; superscript = multiple of MIC
APEC O2 = format: cell-based, avian pathogenic Escherichia coli (APEC); details: APEC O2, M63 media; MIC/MBC
[7] = test system: intracellular APEC O1 in Caco-2 cells; experiment: Intracellular survival assay (cidal SMs); details: O1, Caco-2, 6 h treatment; superscript = multiple of MIC
APEC O109 = format: cell-based, avian pathogenic Escherichia coli (APEC); details: APEC O109, M63 media; MIC/MBC
APEC O78-53 = format: cell-based, avian pathogenic Escherichia coli (APEC); details: APEC O78-53, M63 media; MIC/MBC
[8] = test system: intracellular APEC O2 in THP-1 cells; experiment: Intracellular survival assay (cidal SMs); details: O2, THP-1, 6 h treatment; superscript = multiple of MIC
APEC O78 [9] = experiment: Loss of 260/280 nm absorbing materials assay; format: cell-based, avian pathogenic Escherichia coli (APEC); details: 2X MBC, 1 h, *P<0.05 vs DMSO; for Absorbance 260: 260 nm absorbing material in supernatant; for Absorbance 280: 280 nm absorbing material in supernatant
APEC O15 = format: cell-based, avian pathogenic Escherichia coli (APEC); details: APEC O15, M63 media; MIC/MBC
[10] = test system: biofilm embedded APEC O78; experiment: MBEC High-throughput assay; format: cell-based, avian pathogenic Escherichia coli (APEC); details: for MBEC: biofilm embedded APEC O78, superscript = multiple of MIC (footnote)
Method: Effect against biofilm embedded APEC. The effect of cidal SMs against biofilm embedded APEC was determined using MBEC High-throughput (HTP) assay (Innovotech Inc., AB, Canada). Briefly, 150 µL of 0.05 OD600 adjusted APEC O78 culture was aliquoted into each well of the MBEC device containing polystyrene pegs and incubated at 37° C. for 36 h in LB media under stationary condition. […] The plate was incubated in the dark for 18 h at 37° C. with rotation at 110 rpm. The DMSO (1%) and M63 media were used as positive and negative controls, respectively. Following incubation, MIC of SMs in challenged plate was recorded. The SMs exposed pegs were then transferred to a new 96-well plate containing PBS and sonicated for 30 mins (Aquasonic ultrasonic cleaner, VWR) to disrupt the biofilm. […] Biofilm embedded APEC bacteria were enumerated and minimum biofilm eradication concentration (MBEC) of […] were determined. Two independent experiments were conducted.

APEC O35 = format: cell-based, avian pathogenic Escherichia coli (APEC); details: APEC O35, M63 media; MIC/MBC
APEC O2-211 = format: cell-based, avian pathogenic Escherichia coli (APEC); details: APEC O2-211, M63 media; MIC/MBC
APEC O78 [11] = format: cell-based, avian pathogenic Escherichia coli (APEC); details: APEC O78, M63 media
[12] = test system: intracellular APEC O78 in HD11 cells; experiment: Intracellular survival assay (cidal SMs); details: O78, HD11, 6 h treatment; superscript = multiple of MIC
APEC O8 = format: cell-based, avian pathogenic Escherichia coli (APEC); details: APEC O8, M63 media; MIC/MBC
APEC O1 = format: cell-based, avian pathogenic Escherichia coli (APEC); details: APEC O1, M63 media; MIC/MBC
APEC O1-63 = format: cell-based, avian pathogenic Escherichia coli (APEC); details: APEC O1-63, M63 media; MIC/MBC
[13] = test system: intracellular APEC O1 in HD11 cells; experiment: Intracellular survival assay (cidal SMs); details: O1, HD11, 6 h treatment; superscript = multiple of MIC
[14] = test system: intracellular APEC O78 in Caco-2 cells; experiment: Intracellular survival assay (cidal SMs); details: O78, Caco-2, 6 h treatment; superscript = multiple of MIC

COc1ccc(CNCc2cccc(C(F)(F)F)c2)cc1OCC(O)CN1CCCC1 (centres unmarked) [SM7]
reduction of average APEC load in internal organs (Rif^r APEC O78; heart): 2.6 logs
cumulative lesions score (Rif^r APEC O78; liver, heart, lung and air-sacs, untreated 6.2): 2.4
reduction of APEC induced mortality (Rif^r APEC O78): 71.42%
reduction of APEC lesions severity (%), Air-sacs (airsacculitis) (Rif^r APEC O78): 52.9%
reduction of APEC lesions severity (%), Heart (pericarditis) (Rif^r APEC O78): 60%
reduction of APEC lesions severity (%), Liver (perihepatitis) (Rif^r APEC O78): 60%
reduction of APEC lesions severity (%), Lung (lung congestion) (Rif^r APEC O78): 83.3%
effect on BWG of chickens (Rif^r APEC O78; vs non-treated and non-infected chickens): indistinguishable BWG
reduction of APEC load, Heart (Rif^r APEC O78): 2.3 log CFU/g of tissues
reduction of APEC load, Kidney (Rif^r APEC O78): 3.2 log CFU/g of tissues
reduction of APEC load, Liver (Rif^r APEC O78): 2.5 log CFU/g of tissues
reduction of APEC load, Lung (Rif^r APEC O78): 2.4 log CFU/g of tissues
Body weight gain (BWG) (Rif^r APEC O78): 261.30±20.43
SMs intracellular APEC clearance concentration [1]: 100^c µM
MBC (APEC O18): 100 µM (≈ 43.8 µg/mL)
MIC (APEC O18): 50 µM (≈ 21.9 µg/mL)
cytological profile (confocal, FM4-64 / SYTO-9) (APEC O78 [2]): membrane pore formers
MBC (APEC O115): 100 µM (≈ 43.8 µg/mL)
MIC (APEC O115): 100 µM (≈ 43.8 µg/mL)
SMs intracellular APEC clearance concentration [3]: >100 µM
SMs intracellular APEC clearance concentration [4]: 50^b µM
effectiveness in clearing intracellular APEC serotypes in all tested cells [5]: most effective
SMs intracellular APEC clearance concentration [6]: 100^c µM
MBC (APEC O2): 50 µM (≈ 21.9 µg/mL)
MIC (APEC O2): 25 µM (≈ 11 µg/mL)
SMs intracellular APEC clearance concentration [7]: 100^c µM
MBC (APEC O109): 100 µM (≈ 43.8 µg/mL)
MIC (APEC O109): 100 µM (≈ 43.8 µg/mL)
MBC (APEC O78-53): 50 µM (≈ 21.9 µg/mL)
MIC (APEC O78-53): 50 µM (≈ 21.9 µg/mL)
SMs intracellular APEC clearance concentration [8]: 25^a µM
Absorbance 260 (APEC O78 [9]): 3.91*
Absorbance 280 (APEC O78 [9]): 2.70*
MBC (APEC O15): 50 µM (≈ 21.9 µg/mL)
MIC (APEC O15): 50 µM (≈ 21.9 µg/mL)
MBEC [10]: 50^b µM
MBC (APEC O35): 50 µM (≈ 21.9 µg/mL)
MIC (APEC O35): 25 µM (≈ 11 µg/mL)
MBC (APEC O2-211): 50 µM (≈ 21.9 µg/mL)
MIC (APEC O2-211): 50 µM (≈ 21.9 µg/mL)
MIC (APEC O78 [11]; MIC/MBC): 25 µM (≈ 11 µg/mL)
MBC (APEC O78 [11]; cell prints MIC/MBC): 50 µM (≈ 21.9 µg/mL)
SMs intracellular APEC clearance concentration [12]: 50^b µM
MBC (APEC O8): 200 µM (≈ 87.7 µg/mL)
MIC (APEC O8): 100 µM (≈ 43.8 µg/mL)
MBC (APEC O1): 100 µM (≈ 43.8 µg/mL)
MIC (APEC O1): 50 µM (≈ 21.9 µg/mL)
MBC (APEC O1-63): 100 µM (≈ 43.8 µg/mL)
MIC (APEC O1-63): 50 µM (≈ 21.9 µg/mL)
SMs intracellular APEC clearance concentration [13]: 100^c µM
SMs intracellular APEC clearance concentration [14]: 100^c µM

CC(=O)OC(C(Br)C(=O)c1ccc([N+](=O)[O-])cc1)C(Cl)(Cl)Cl (centres unmarked) [SM10]
reduction of average APEC load in internal organs (Rif^r APEC O78; heart): 1.3 logs
reduction of APEC induced mortality (Rif^r APEC O78): 71.42%
reduction of APEC lesions severity (%), Air-sacs (airsacculitis) (Rif^r APEC O78): -52.9%
reduction of APEC lesions severity (%), Heart (pericarditis) (Rif^r APEC O78): -28%
reduction of APEC lesions severity (%), Liver (perihepatitis) (Rif^r APEC O78): 20%
reduction of APEC lesions severity (%), Lung (lung congestion) (Rif^r APEC O78): 0%
reduction of APEC load, Heart (Rif^r APEC O78): 1.0 log CFU/g of tissues
reduction of APEC load, Kidney (Rif^r APEC O78): 2.4 log CFU/g of tissues
reduction of APEC load, Liver (Rif^r APEC O78): 0.8 log CFU/g of tissues
reduction of APEC load, Lung (Rif^r APEC O78): 1.4 log CFU/g of tissues
Body weight gain (BWG) (Rif^r APEC O78): 220.75±38.93
SMs intracellular APEC clearance concentration [1]: 100^c µM
MBC (APEC O18): 100 µM (≈ 43.3 µg/mL)
MIC (APEC O18): 25 µM (≈ 10.8 µg/mL)
cytological profile (confocal, FM4-64 / SYTO-9) (APEC O78 [2]): PG synthesis inhibitors
MBC (APEC O115): 50 µM (≈ 21.7 µg/mL)
MIC (APEC O115): 25 µM (≈ 10.8 µg/mL)
SMs intracellular APEC clearance concentration [3]: >100 µM
SMs intracellular APEC clearance concentration [4]: 100^c µM
effectiveness in clearing intracellular APEC serotypes in all tested cells [5]: most effective
SMs intracellular APEC clearance concentration [6]: 100^c µM
MBC (APEC O2): 50 µM (≈ 21.7 µg/mL)
MIC (APEC O2): 25 µM (≈ 10.8 µg/mL)
SMs intracellular APEC clearance concentration [7]: 100^c µM
MBC (APEC O109): 50 µM (≈ 21.7 µg/mL)
MIC (APEC O109): 25 µM (≈ 10.8 µg/mL)
MBC (APEC O78-53): 50 µM (≈ 21.7 µg/mL)
MIC (APEC O78-53): 25 µM (≈ 10.8 µg/mL)
SMs intracellular APEC clearance concentration [8]: 50^b µM
Absorbance 260 (APEC O78 [9]): 3.98*
Absorbance 280 (APEC O78 [9]): 2.73*
MBC (APEC O15): 100 µM (≈ 43.3 µg/mL)
MIC (APEC O15): 50 µM (≈ 21.7 µg/mL)
reduction of biofilms embedded APEC ([10]; at 1X MIC): significantly (P<0.05) reduced
MBEC [10]: >200 µM
MBC (APEC O35): 50 µM (≈ 21.7 µg/mL)
MIC (APEC O35): 25 µM (≈ 10.8 µg/mL)
MBC (APEC O2-211): 50 µM (≈ 21.7 µg/mL)
MIC (APEC O2-211): 25 µM (≈ 10.8 µg/mL)
MBC (APEC O78 [11]; cell prints MIC/MBC): 50 µM (≈ 21.7 µg/mL)
MIC (APEC O78 [11]; cell prints MIC/MBC): 25 µM (≈ 10.8 µg/mL)
SMs intracellular APEC clearance concentration [12]: 50^b µM
MBC (APEC O8): 50 µM (≈ 21.7 µg/mL)
MIC (APEC O8): 50 µM (≈ 21.7 µg/mL)
MBC (APEC O1): 25 µM (≈ 10.8 µg/mL)
MIC (APEC O1): 25 µM (≈ 10.8 µg/mL)
MBC (APEC O1-63): 100 µM (≈ 43.3 µg/mL)
MIC (APEC O1-63): 50 µM (≈ 21.7 µg/mL)
SMs intracellular APEC clearance concentration [13]: >100 µM
SMs intracellular APEC clearance concentration [14]: 100^c µM
